Data as given in US8536157B2, “Non-steroidal compounds” (The University of Melbourne, priority 2007, dated 2013).

Experiments:
[1] = target: proteins in rat lung membranes; assay: Competitive binding assay with [3H]-CP2117 on rat lung membranes (RLM); conditions: given as Log IC50 (negative values); displacement of 10 nM [3H]-CP2117, overnight at 4° C.; ND- not detected
[2] = test system: PGE2 release in J774 macrophages; assay: PGE2 release from LPS/IFNγ-stimulated J774 macrophages (radioimmunoassay); assay type: cell-based, murine; conditions: 30 min pre-treatment, 24 hour incubation; for activity at 1 µM / activity at 10 µM: Mus musculus, J774, 24 h; for activity at 1 µM: read-out: Effects on PGE2 release in J774 macrophages at 1 μM as a % of LPS/IFNγ control, mean; for activity at 10 µM: read-out: Effects on PGE2 release in J774 macrophages at l0 μM as a % of LPS/IFNγ control, mean

SMILES | Log IC50 RLM binding [1] | activity at 1 µM [2] | activity at 10 µM ([2]; l0 μM) | Effects on PGE2 release in J774 macrophages at 1 μM as a % of LPS/IFNγ control, mean [2] | Effects on PGE2 release in J774 macrophages at l0 μM as a % of LPS/IFNγ control, mean ([2]; l0 μM)
COc1cc(C2CCCCC2)c(C(C)=NOCc2ccc([N+](=O)[O-])cc2)cc1O [CP30424, 2′-Cyclohexyl-5′-hydroxy-4′-methoxyacetophenone O-4-Nitrobenzyl Oxime] | −6.18 | 83% | – | – | –
COc1ccc(C(=NOCc2ccc([N+](=O)[O-])cc2)[C@H]2CC[C@H](CCO)CC2)cc1O [CP30347, trans-(3-Hydroxy-4-methoxyphenyl)-4-(2-hydroxyethyl)cyclohexylmethanone O-4-Nitrobenzyl Oxime] | −5.75 | 102% | 68% | – | –
COc1ccc(/C(C)=N/OCc2cccc(F)c2)cc1O [CP30262, (E)-3′-Hydroxy-4′-methoxyacetophenone O-3-Fluorobenzyl Oxime] | −6.88 | – | – | – | –
COc1cc2c(cc1O)/C(=N/OCc1ccc3nonc3c1)CC2 [Compound 2-TB-147, (E)-6-Hydroxy-5-methoxy-2,3-dihydro-1H-inden-1-one O-benzo[c][1,2,5]oxadiazol-5-ylmethyl oxime] | −6.43 | – | – | – | –
COc1ccc(/C(C)=N/OCc2ccc(F)cc2)cc1O [CP30266, (E)-3′-Hydroxy-4′-methoxyacetophenone O-4-Fluorobenzyl Oxime] | −6.9 | – | – | – | –
COc1ccc(-c2cc(OC)c(O)cc2/C(C)=N/OCc2ccc([N+](=O)[O-])cc2)cc1 [CP30338, (E)-5′-Hydroxy-4′-methoxy-2′-(4-methoxyphenyl)acetophenone O-4-Nitrobenzyl Oxime] | −6.88 | – | – | – | –
COc1cc(-c2ccc(OC(F)(F)F)cc2)c(/C(C)=N/OCc2ccc([N+](=O)[O-])cc2)cc1O [CP30343, (E)-2′-(4-Trifluoromethoxyphenyl)-5′-hydroxy-4′-methoxyacetophenone O-4-Nitrobenzyl Oxime] | −6.23 | 65% | 51% | – | –
COc1ccc(C(=NOCc2ccc([N+](=O)[O-])cc2)[C@H]2CC[C@@H](CCO)CC2)cc1O [CP30348-1, cis-(3-Hydroxy-4-methoxyphenyl)-4-(2-hydroxyethyl)cyclohexylmethanone O-4-Nitrobenzyl Oxime] | −6.02 | – | 91% | 124 % of LPS/IFNγ control | –
COc1cc(-c2ccc(N)cc2)c(/C(C)=N/OCc2ccc([N+](=O)[O-])cc2)cc1O [CP30381, (E)-2′-(4-Aminophenyl)-5′-hydroxy-4′-methoxyacetophenone O-4-Nitrobenzyl Oxime] | – | 62% | – | – | –
COc1cc2c(cc1O)/C(=N/OCc1ccc([N+](=O)[O-])cc1)CCC2 [TB76, (E)-7-Hydroxy-6-methoxy-3,4-dihydronaphthalen-1(2H)-one O-4-Nitrobenzyl Oxime] | −6.48 | – | – | – | –
COc1ccc(/C(C)=N/OCc2cccc(C)c2)cc1O [CP30264, (E)-3′-Hydroxy-4′-methoxyacetophenone O-3-Methylbenzyl Oxime] | −6.96 | 77% | 74% | – | –
COc1cc(-c2ccc(Cl)cc2)c(/C(C)=N/OCc2ccc([N+](=O)[O-])cc2)cc1O [CP30340, (E)-2′-(4-Chlorophenyl)-5′-hydroxy-4′-methoxyacetophenone O-4-Nitrobenzyl Oxime] | −6.26 | – | 51% | – | –
COc1cc(-c2ccc(OC)c(OC)c2)c(/C(C)=N/OCc2ccc([N+](=O)[O-])cc2)cc1O [CP30331, (E)-5′-Hydroxy-4′-methoxy-2′-(3,4-dimethoxyphenyl)acetophenone O-4-Nitrobenzyl Oxime] | −6.14 | – | 28% | – | –
COc1ccc(C(=NOCc2ccc([N+](=O)[O-])cc2)[C@H]2CC[C@@H](CCO)CC2)cc1O [CP30348-2, cis-(3-Hydroxy-4-methoxyphenyl)-4-(2-hydroxyethyl)cyclohexylmethanone O-4-Nitrobenzyl Oxime] | −5.6 | – | – | 85 % of LPS/IFNγ control | 111 % of LPS/IFNγ control
C/C(=N\OCc1ccc2nonc2c1)c1ccc(F)c(O)c1 [CP9135, 4′-Fluoro-3′-hydroxyacetophenone-O—[(benzo[c][1,2,5]oxadiazol-5-yl)methyl]oxime] | −5.28 | 66% | 90% | – | –
C/C(=N\OCc1ccc2nonc2c1)c1ccc(O)c(F)c1 [CP9128, 3′-Fluoro-4′-hydroxyacetophenone-O-[(benzo[c][1,2,5]oxadiazol-5-yl)methyl]oxime] | −5.9 | 62% | 65% | – | –
COc1cc([C@H]2CC[C@@](C)(CO)CC2)c(C(C)=NOCc2ccc3nonc3c2)cc1O [CP30453, 2′-(4-Hydroxymethyl-4-methyl)cyclohexyl-5′-hydroxy-4′-methoxyacetophenone O-(benzofurazan-5-yl)methyl Oxime] | −5.81 | – | – | – | –
COc1cc2c(cc1O)/C(=N/OCc1ccc([N+](=O)[O-])cc1)CC2 [TB81, (E)-6-Hydroxy-5-methoxy-2,3-dihydroinden-1-one O-4-Nitrobenzyl Oxime] | −6.16 | – | – | – | –
COc1cc(-c2ccc(F)cc2)c(/C(C)=N/OCc2ccc([N+](=O)[O-])cc2)cc1O [CP30344, (E)-2′-(4-Fluorophenyl)-5′-hydroxy-4′-methoxyacetophenone O-4-Nitrobenzyl Oxime] | −5.43 | 111% | 94% | – | –
COc1ccc(/C(C)=N/OCc2ccc(F)c(F)c2)cc1O [CP30281, (E)-3′-Hydroxy-4′-methoxyacetophenone O-3,4-Difluorobenzyl Oxime] | −6.16 | – | – | – | –
COc1ccc(/C(C)=N/OCc2ccccc2F)cc1O [CP30280, (E)-3′-Hydroxy-4′-methoxyacetophenone O-2-Fluorobenzyl Oxime] | −6.5 | – | – | – | –
COc1cc(-c2cccc(NC(=O)OC(C)(C)C)c2)c(/C(C)=N/OCc2ccc([N+](=O)[O-])cc2)cc1O [CP30339, (E)-2′-(3-tert-Butoxycarbonylaminophenyl)-5′-hydroxy-4′-methoxyacetophenone O-4-Nitrobenzyl Oxime] | −6.64 | – | 36% | – | –
COc1cc2c(cc1O)/C(=N/OCc1ccc3nonc3c1)CCC2 [Compound 2-TB-146, (E)-7-Hydroxy-6-methoxy-3,4-dihydronaphthalen-1(2H)-one O-benzo[c][1,2,5]oxadiazol-5-ylmethyl oxime] | −6.91 | – | – | – | –
COc1cc2c(cc1OC)/C(=N/OCc1ccc([N+](=O)[O-])cc1)CC2 [TB54, (E)-5,6-Dimethoxy-2,3-dihydroinden-1-one O-4-Nitrobenzyl Oxime] | – | 95% | 78% | – | –
COc1cc(-c2ccccc2)c(/C(C)=N/OCc2ccc([N+](=O)[O-])cc2)cc1O [CP30329, (E)-5′-Hydroxy-4′-methoxy-2′-phenylacetophenone O-4-Nitrobenzyl Oxime] | −6.2 | – | 55% | – | –
COc1ccc(/C(C)=N/OCc2cccc(OC(F)(F)F)c2)cc1O [CP30282, (E)-3′-Hydroxy-4′-methoxyacetophenone O-3-Trifluoromethoxybenzyl Oxime] | −6.41 | – | – | – | –
